Test results from paper PMC11459967 (Antimicrobial Agents and Chemotherapy, 2024).

What was measured:
[1] = test system: SARS-CoV-2 (USA-WA1/2020 variant); assay: Cytopathic effect (CPE) live virus cell viability assay in Vero-E6 cells; assay type: cell-based; conditions: for EC50: Severe acute respiratory syndrome coronavirus 2, Vero C1008, 96 h, read-out: EC50 viral CPE assay
SARS-CoV-2 Mpro = SARS-CoV-2 Mpro (Severe acute respiratory syndrome coronavirus 2, UniProt P0DTC1); assay: biochemical; assay type: biochemical

## CCC(CC)COC(=O)[C@H](C)N[P@](=O)(OC[C@H]1O[C@@](C#N)(c2ccc3c(N)ncnn23)[C@H](O)[C@@H]1O)Oc1ccccc1 [Remdesivir, reference compound]
[1]
  EC50: 2.7 ± 0.5 µM
[1]; Severe acute respiratory syndrome coronavirus 2, Vero C1008, single treatment, 1 µM of remdesivir, 96 h, three independent experiments, read-out: inhibition of CPE in infected cells
  inhibition at 1 µM: 3.6 ± 3.1%

## O=C(CN1C(=O)C(NC(=O)OCc2ccccc2)COc2ccccc21)NC(CC1CCNC1=O)C(=O)COC(=O)c1c(Cl)cccc1Cl (centres unmarked) [Compound 1]
SARS-CoV-2 Mpro
  IC50: 0.23 ± 0.018 µM
SARS-CoV-2 Mpro; ratio of Mpro IC50 versus Pfizer lead compound 18
  fold less potent (Mpro) than compound 18: ~ 20 fold
[1]
  fold reduced in activity compared to 18: 2.2 fold
  fold reduced in activity compared to GC-376: 4.1 fold
  EC50: 7.5 ± 2 µM
[1]; Severe acute respiratory syndrome coronavirus 2, Vero C1008, single treatment, 5 µM of 1, 96 h, three independent experiments, read-out: inhibition of CPE in infected cells
  inhibition at 5 µM: 19.5 ± 13.7%

## O=C(CN1C(=O)[C@@H](NC(=O)c2ccc3ccccc3n2)COc2ccccc21)N[C@@H](C[C@@H]1CCNC1=O)C(=O)COC(=O)c1c(Cl)cccc1Cl [Compound 20]
SARS-CoV-2 Mpro
  IC50: 0.58 ± 0.04 µM
[1]
  EC50: 44.5 ± 7.4 µM

## CC(C)C[C@H](NC(=O)OCc1ccccc1)C(=O)N[C@@H](C[C@@H]1CCNC1=O)C(O)S(=O)(=O)O (some centres unmarked) [GC-376, reference compound]
SARS-CoV-2 Mpro
  IC50: 0.018 ± 0.0015 µM
SARS-CoV-2 Mpro; Mpro enzymatic assay
  time to achieve maximum inhibition: ≤ 10 min
[1]
  EC50: 1.8 ± 0.4 µM

## COc1cccc2[nH]c(C(=O)N[C@@H](CC(C)C)C(=O)N[C@@H](C[C@@H]3CCNC3=O)C(=O)COC(=O)c3c(Cl)cccc3Cl)cc12 [Compound 18, reference compound]
SARS-CoV-2 Mpro
  IC50: 0.011 ± 0.0007 µM
[1]
  EC50: 3.4 ± 1.4 µM

## O=C(CN1C(=O)[C@@H](NC(=O)c2ccccc2)COc2ccccc21)N[C@@H](C[C@@H]1CCNC1=O)C(=O)COC(=O)c1c(Cl)cccc1Cl [Compound 19]
SARS-CoV-2 Mpro
  IC50: 0.62 ± 0.048 µM
[1]
  EC50: 25 ± 5 µM

## O=C(CN1C(=O)[C@@H](NC(=O)OCc2ccccc2)COc2ccccc21)N[C@@H](C[C@@H]1CCNC1=O)C(=O)COc1cc(C(F)(F)F)nn1-c1ccc(F)cc1 [Compound 21]
SARS-CoV-2 Mpro
  IC50: 3.1 µM
SARS-CoV-2 Mpro; ratio of Mpro IC50 versus compound 1
  fold less Mpro activity compared to 1: more than 10 fold
[1]
  EC50: 73.5 ± 12.4 µM
